In brackets after ≈: the same amount, converted by molar mass. Several values for one entry are separate records, joined by “and”; a condition that tells them apart may be missing. Equal values may be shown once. Activity calls are given as the source filed them. The rule behind the calls is not given here.
What was measured:
Staphylococcus aureus [1] = assay: Antibacterial activity against vancomycin-susceptible methicillin-susceptible Staphylococcus aureus Newman incubated for 24 hrs by broth microdilution method; format: functional
Staphylococcus aureus [2] = assay: Antimicrobial activity against methicillin-resistant Staphylococcus aureus USA300 LAC incubated for 24 hrs by broth microdilution method; format: functional
Staphylococcus aureus [3] = assay: Antibacterial activity against vancomycin-intermediate Staphylococcus aureus Mu50 incubated for 24 hrs by broth microdilution method; format: functional
Enterococcus faecalis [4] = assay: Antibacterial activity against vancomycin-resistant, teicoplanin sensitive Enterococcus faecalis VanB01 incubated for 24 hrs by broth microdilution method; format: functional
Enterococcus faecalis [5] = assay: Antibacterial activity against vancomycin-resistant, teicoplanin sensitive Enterococcus faecalis HS08257 incubated for 24 hrs by broth microdilution method; format: functional
Enterococcus faecalis [6] = assay: Antibacterial activity against vancomycin-resistant, teicoplanin sensitive Enterococcus faecalis HS0847 incubated for 24 hrs by broth microdilution method; format: functional
Enterococcus faecalis [7] = assay: Antibacterial activity against vancomycin-resistant, teicoplanin resistant Enterococcus faecalis HS06188 incubated for 24 hrs by broth microdilution method; format: functional
Enterococcus faecalis [8] = assay: Antibacterial activity against vancomycin-resistant, teicoplanin resistant Enterococcus faecalis HS0649 incubated for 24 hrs by broth microdilution method; format: functional
Staphylococcus aureus [9] = assay: Antimicrobial activity against methicillin-resistant Staphylococcus aureus USA400 MW2 incubated for 24 hrs by broth microdilution method; format: functional
[10] = Cytotoxicity against human L02 cells after 72 hrs by CCK-8 assay; format: toxicity, cell-based
Staphylococcus aureus [11] = assay: Antimicrobial activity against methicillin-resistant Staphylococcus aureus NRS100 incubated for 24 hrs by broth microdilution method; format: functional
Staphylococcus aureus [12] = assay: Antimicrobial activity against methicillin and linezoid-resistant Staphylococcus aureus NRS271 incubated for 24 hrs by broth microdilution method; format: functional
Staphylococcus aureus [13] = assay: Antibiofilm activity against methicillin-resistant Staphylococcus aureus USA300 LAC assessed as decrease in biofilm formation at 0.0625 ug/ml measured by crystal violet staining assay; format: functional, organism-based; details: dose 0.0625 µg/ml
[14] = Selectivity index, ratio of IC50 for L02 cell cytotoxicity over MIC for vancomycin-susceptible methicillin-susceptible Staphylococcus aureus Newman; format: toxicity; details: human, L02 cells
[15] = Metabolic stability in human liver microsomes assessed metabolic bioavailability at 0.1 uM in presence of NADPH measured by LC-MS/MS analysis; format: ADME, Microsome; details: read-out: Stability
[16] = Metabolic stability in mouse liver microsomes assessed metabolic bioavailability at 0.1 uM in presence of NADPH measured by LC-MS/MS analysis; format: ADME, Microsome; details: read-out: Stability
[17] = Metabolic stability in dog liver microsomes assessed metabolic bioavailability at 0.1 uM in presence of NADPH measured by LC-MS/MS analysis; format: ADME, Canis lupus familiaris, Microsome; details: read-out: Stability
[18] = Metabolic stability in monkey liver microsomes assessed metabolic bioavailability at 0.1 uM in presence of NADPH measured by LC-MS/MS analysis; format: ADME, Macaca mulatta, Microsome; details: rhesus monkey, read-out: Stability

## N#Cc1cc(C(=O)c2cc(Cl)cc(Cl)c2O)[nH]n1
Staphylococcus aureus [1]
  MIC: 2 µg/mL (≈ 7.09 µM)
Staphylococcus aureus [2]
  MIC: 2 µg/mL (≈ 7.09 µM)
Staphylococcus aureus [3]
  MIC: 2 µg/mL (≈ 7.09 µM)

## O=C1c2ccccc2S(=O)(=O)c2c(C(F)(F)F)n[nH]c21
Staphylococcus aureus [1]
  MIC: > 256 µg/mL
Staphylococcus aureus [2]
  MIC: > 256 µg/mL
Staphylococcus aureus [3]
  MIC: > 256 µg/mL

## O=C(c1cc(C(F)(F)F)n[nH]1)c1cc(F)c(F)cc1O
Staphylococcus aureus [1]
  MIC: 0.5 µg/mL (≈ 1.71 µM)
Staphylococcus aureus [2]
  MIC: 0.5 µg/mL (≈ 1.71 µM)
Staphylococcus aureus [3]
  MIC: 1 µg/mL (≈ 3.42 µM)

## Cc1cc(C(=O)c2cc(C#N)n[nH]2)c(O)cc1F
Staphylococcus aureus [1]
  MIC: 0.5 µg/mL (≈ 2.04 µM)
Staphylococcus aureus [2]
  MIC: 0.5 µg/mL (≈ 2.04 µM)
Staphylococcus aureus [3]
  MIC: 0.25 µg/mL (≈ 1.02 µM)

## N#Cc1cc(C(=O)c2cc(Cl)c(F)cc2O)[nH]n1
Staphylococcus aureus [1]
  MIC: 0.5 µg/mL (≈ 1.88 µM)
Staphylococcus aureus [2]
  MIC: 0.5 µg/mL (≈ 1.88 µM)
Staphylococcus aureus [3]
  MIC: 0.5 µg/mL (≈ 1.88 µM)

## CN[C@H](CC(C)C)C(=O)N[C@H]1C(=O)N[C@@H](CC(N)=O)C(=O)N[C@H]2C(=O)N[C@H]3C(=O)N[C@H](C(=O)N[C@H](C(=O)O)c4cc(O)cc(O)c4-c4cc3ccc4O)[C@H](O)c3ccc(c(Cl)c3)Oc3cc2cc(c3O[C@@H]2O[C@H](CO)[C@@H](O)[C@H](O)[C@H]2O[C@H]2C[C@](C)(N)[C@H](O)[C@H](C)O2)Oc2ccc(cc2Cl)[C@H]1O [VANCOMYCIN]
Staphylococcus aureus [3]
  MIC: 8 µg/mL (≈ 5.52 µM)
Enterococcus faecalis [4]
  MIC: 0.25 µg/mL (≈ 0.173 µM)
Enterococcus faecalis [5]
  MIC: < 0.125 µg/mL
Enterococcus faecalis [6]
  MIC: 0.25 µg/mL (≈ 0.173 µM)
Enterococcus faecalis [7]
  MIC: 2 µg/mL (≈ 1.38 µM)
Enterococcus faecalis [8]
  MIC: 0.5 µg/mL (≈ 0.345 µM)
Staphylococcus aureus [9]
  MIC: < 0.125 µg/mL
[10]
  IC50 at 72 h: > 30 µM and > 43 µg/mL

## O=C(c1cc(C(F)(F)F)n[nH]1)c1cc(Cl)c(Cl)cc1O
Staphylococcus aureus [1]
  MIC: 0.0625 µg/mL (≈ 0.192 µM)
Staphylococcus aureus [2]
  MIC: 0.0625 µg/mL (≈ 0.192 µM)
Staphylococcus aureus [3]
  MIC: 0.0312 µg/mL (≈ 0.0961 µM)
Enterococcus faecalis [4]
  MIC: 0.5 µg/mL (≈ 1.54 µM)
Enterococcus faecalis [5]
  MIC: < 0.125 µg/mL
Enterococcus faecalis [6]
  MIC: 0.25 µg/mL (≈ 0.769 µM)
Enterococcus faecalis [7]
  MIC: > 128 µg/mL
Enterococcus faecalis [8]
  MIC: 0.5 µg/mL (≈ 1.54 µM)
Staphylococcus aureus [9]
  MIC: 0.25 µg/mL (≈ 0.769 µM)
Staphylococcus aureus [11]
  MIC: 0.5 µg/mL (≈ 1.54 µM)
Staphylococcus aureus [12]
  MIC: > 128 µg/mL
Staphylococcus aureus [13]
  Activity: Active
[10]
  IC50 at 72 h: 2.57 µM and 0.84 µg/mL
[14]
  selectivity ratio: > 13
[15]
  Fh at 0.1 µM: 42%
[16]
  Fh at 0.1 µM: 10.1%
[17]
  Fh at 0.1 µM: 7.07%
[18]
  Fh at 0.1 µM: 28.6%

## O=C(O)c1cn(C2CC2)c2cc(N3CCNCC3)c(F)cc2c1=O [CIPROFLOXACIN]
Staphylococcus aureus [1]
  MIC: 0.25 µg/mL (≈ 0.754 µM)
Staphylococcus aureus [2]
  MIC: 2 µg/mL (≈ 6.04 µM)
Staphylococcus aureus [3]
  MIC: 32 µg/mL (≈ 96.6 µM)
[10]
  IC50 at 72 h: 12.2 µM and 4.05 µg/mL

## N#Cc1n[nH]c2c(=O)c3c(O)c(Cl)cc(Cl)c3sc12
Staphylococcus aureus [1]
  MIC: 2 µg/mL (≈ 6.41 µM)
Staphylococcus aureus [2]
  MIC: 2 µg/mL (≈ 6.41 µM)
Staphylococcus aureus [3]
  MIC: 2 µg/mL (≈ 6.41 µM)

## O=c1c2[nH]nc(C(F)(F)F)c2sc2c(Cl)cc(Cl)c(O)c12
Staphylococcus aureus [1]
  MIC: 2 µg/mL (≈ 5.63 µM)
Staphylococcus aureus [2]
  MIC: 2 µg/mL (≈ 5.63 µM)
Staphylococcus aureus [3]
  MIC: 1 µg/mL (≈ 2.82 µM)

## Cc1cc(C(=O)c2cc(C(F)(F)F)n[nH]2)c(O)cc1F
Staphylococcus aureus [1]
  MIC: 0.25 µg/mL (≈ 0.867 µM)
Staphylococcus aureus [2]
  MIC: 0.25 µg/mL (≈ 0.867 µM)
Staphylococcus aureus [3]
  MIC: 1 µg/mL (≈ 3.47 µM)

## Cc1n[nH]c2c(=O)c3c(O)c(Cl)cc(Cl)c3oc12
Staphylococcus aureus [1]
  MIC: > 256 µg/mL
Staphylococcus aureus [2]
  MIC: > 256 µg/mL
Staphylococcus aureus [3]
  MIC: > 256 µg/mL

## O=c1c2ccccc2sc2c(C(F)(F)F)n[nH]c12
Staphylococcus aureus [1]
  MIC: > 256 µg/mL
Staphylococcus aureus [2]
  MIC: > 256 µg/mL
Staphylococcus aureus [3]
  MIC: > 256 µg/mL

## COC(=O)c1n[nH]c2c(=O)c3c(O)c(Cl)cc(Cl)c3oc12
Staphylococcus aureus [1]
  MIC: 4 µg/mL (≈ 12.2 µM)
Staphylococcus aureus [2]
  MIC: 16 µg/mL (≈ 48.6 µM)
Staphylococcus aureus [3]
  MIC: 16 µg/mL (≈ 48.6 µM)

## N#Cc1n[nH]c2c(=O)c3c(O)c(Cl)cc(Cl)c3oc12
Staphylococcus aureus [1]
  MIC: 4 µg/mL (≈ 13.5 µM)
Staphylococcus aureus [2]
  MIC: 8 µg/mL (≈ 27 µM)
Staphylococcus aureus [3]
  MIC: 8 µg/mL (≈ 27 µM)

## NC(=O)c1n[nH]c2c(=O)c3c(O)c(Cl)cc(Cl)c3oc12
Staphylococcus aureus [1]
  MIC: > 256 µg/mL
Staphylococcus aureus [2]
  MIC: > 256 µg/mL
Staphylococcus aureus [3]
  MIC: > 256 µg/mL

## N#Cc1cc(C(=O)c2cc(Cl)c(Cl)cc2O)[nH]n1
Staphylococcus aureus [1]
  MIC: 0.25 µg/mL (≈ 0.886 µM)
Staphylococcus aureus [2]
  MIC: 0.25 µg/mL (≈ 0.886 µM)
Staphylococcus aureus [3]
  MIC: 0.25 µg/mL (≈ 0.886 µM)
Enterococcus faecalis [4]
  MIC: 1 µg/mL (≈ 3.55 µM)
Enterococcus faecalis [5]
  MIC: 0.25 µg/mL (≈ 0.886 µM)
Enterococcus faecalis [6]
  MIC: 0.5 µg/mL (≈ 1.77 µM)
Enterococcus faecalis [7]
  MIC: > 128 µg/mL
Enterococcus faecalis [8]
  MIC: 0.5 µg/mL (≈ 1.77 µM)
Staphylococcus aureus [9]
  MIC: < 0.125 µg/mL
Staphylococcus aureus [11]
  MIC: 0.5 µg/mL (≈ 1.77 µM)
Staphylococcus aureus [12]
  MIC: 1 µg/mL (≈ 3.55 µM)
Staphylococcus aureus [13]
  Activity: Active
[10]
  IC50 at 72 h: 10.7 µM and 3.02 µg/mL
[14]
  selectivity ratio: > 12
[15]
  Fh at 0.1 µM: 69.7%
[16]
  Fh at 0.1 µM: 10.2%
[17]
  Fh at 0.1 µM: 9.79%
[18]
  Fh at 0.1 µM: 85.6%

## O=C1c2[nH]nc(C(F)(F)F)c2S(=O)(=O)c2c(Cl)cc(Cl)c(O)c21
Staphylococcus aureus [1]
  MIC: 128 µg/mL (≈ 331 µM)
Staphylococcus aureus [2]
  MIC: 256 µg/mL (≈ 661 µM)
Staphylococcus aureus [3]
  MIC: 256 µg/mL (≈ 661 µM)

## N#Cc1n[nH]c2c(=O)c3ccccc3sc12
Staphylococcus aureus [1]
  MIC: 8 µg/mL (≈ 35.2 µM)
Staphylococcus aureus [2]
  MIC: 32 µg/mL (≈ 141 µM)
Staphylococcus aureus [3]
  MIC: 32 µg/mL (≈ 141 µM)

## O=c1c2[nH]nc(C(F)(F)F)c2oc2c(Cl)cc(Cl)c(O)c12
Staphylococcus aureus [1]
  MIC: 1 µg/mL (≈ 2.95 µM)
Staphylococcus aureus [2]
  MIC: 2 µg/mL (≈ 5.9 µM)
Staphylococcus aureus [3]
  MIC: 1 µg/mL (≈ 2.95 µM)

## O=C(c1cc(C(F)(F)F)n[nH]1)c1cc(Cl)c(F)cc1O
Staphylococcus aureus [1]
  MIC: 0.25 µg/mL (≈ 0.81 µM)
Staphylococcus aureus [2]
  MIC: 0.25 µg/mL (≈ 0.81 µM)
Staphylococcus aureus [3]
  MIC: 0.25 µg/mL (≈ 0.81 µM)
Enterococcus faecalis [4]
  MIC: 1 µg/mL (≈ 3.24 µM)
Enterococcus faecalis [5]
  MIC: 0.5 µg/mL (≈ 1.62 µM)
Enterococcus faecalis [6]
  MIC: 0.5 µg/mL (≈ 1.62 µM)
Enterococcus faecalis [7]
  MIC: > 128 µg/mL
Enterococcus faecalis [8]
  MIC: 1 µg/mL (≈ 3.24 µM)
Staphylococcus aureus [9]
  MIC: 0.25 µg/mL (≈ 0.81 µM)
Staphylococcus aureus [11]
  MIC: 0.25 µg/mL (≈ 0.81 µM)
Staphylococcus aureus [12]
  MIC: > 128 µg/mL

## N#Cc1n[nH]c2c1S(=O)(=O)c1ccccc1C2=O
Staphylococcus aureus [1]
  MIC: > 256 µg/mL
Staphylococcus aureus [2]
  MIC: > 256 µg/mL
Staphylococcus aureus [3]
  MIC: > 256 µg/mL

## O=C(O)c1n[nH]c2c(=O)c3c(O)c(Cl)cc(Cl)c3oc12
Staphylococcus aureus [1]
  MIC: > 256 µg/mL
Staphylococcus aureus [2]
  MIC: > 256 µg/mL
Staphylococcus aureus [3]
  MIC: > 256 µg/mL
